In ChEMBL document CHEMBL5042496, “An unanticipated discovery towards novel naphthalimide corbelled aminothiazoximes as potential anti-MRSA agents and allosteric modulators for PBP2a” (Eur J Med Chem, 2022):
≈ marks a conversion by molar mass, not a printed value. Calls of active or inactive are those of the source. No cut-off for these calls is given here.

Experiments:
Staphylococcus aureus [1] = experiment: Antibacterial activity against methicillin-resistant Staphylococcus aureus assessed as pitted cell structures at 1 time MIC incubated for 8 hrs by SEM analysis; format: functional, organism-based
Staphylococcus aureus [2] = experiment: Antibacterial activity against methicillin-resistant Staphylococcus aureus assessed as bacterial growth inhibition measured after 24 hrs by two fold serial dilution technique; format: functional
DNA [3] = experiment: Binding affinity to DNA (unknown origin) assessed as hypochromicity at 0.2 to 0.8 10^-5 mol/L by UV spectrophotometric analysis; format: functional; details: Homo sapiens; dose 0.2-0.8 10^-5mol/L
L929 = experiment: Cytotoxicity against mouse L929 cells assessed as reduction in cell viability at 0.39 to 100 ug/ml incubated for 24 hrs by MTT assay; format: toxicity, cell-based; details: l929, 24 h, dose 0.39-100 µg/ml
[4] = target: T1, MecA (Staphylococcus aureus) (UniProt Q7DHH4); experiment: Binding affinity to Staphylococcus aureus PBP2a measured after 6 hrs by ELISA in the presence of Ceftizoxime; details: filed as positive allosteric modulator
T1 sequence (whole entry): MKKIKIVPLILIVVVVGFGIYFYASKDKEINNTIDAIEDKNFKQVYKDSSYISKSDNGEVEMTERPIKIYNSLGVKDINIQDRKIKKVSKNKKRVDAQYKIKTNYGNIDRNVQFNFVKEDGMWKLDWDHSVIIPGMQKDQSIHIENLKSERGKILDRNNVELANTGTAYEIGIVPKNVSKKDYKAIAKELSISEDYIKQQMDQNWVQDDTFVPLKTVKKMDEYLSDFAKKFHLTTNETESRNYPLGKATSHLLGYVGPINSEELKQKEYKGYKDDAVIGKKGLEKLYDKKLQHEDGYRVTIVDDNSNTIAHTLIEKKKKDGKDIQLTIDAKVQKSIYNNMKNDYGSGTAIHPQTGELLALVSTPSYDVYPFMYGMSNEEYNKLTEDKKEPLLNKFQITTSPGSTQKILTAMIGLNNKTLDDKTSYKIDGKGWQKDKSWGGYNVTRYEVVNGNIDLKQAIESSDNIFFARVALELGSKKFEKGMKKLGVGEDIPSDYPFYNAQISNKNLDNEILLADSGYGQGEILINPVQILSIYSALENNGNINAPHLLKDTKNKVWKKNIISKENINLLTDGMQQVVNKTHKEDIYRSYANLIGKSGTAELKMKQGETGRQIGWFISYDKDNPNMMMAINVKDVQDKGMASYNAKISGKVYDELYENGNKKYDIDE

Pseudomonas aeruginosa [5] = experiment: Antibacterial activity against Pseudomonas aeruginosa ATCC 27853 assessed as bacterial growth inhibition measured after 24 hrs by two fold serial dilution technique; format: functional
Staphylococcus aureus [6] = experiment: Antibacterial activity against Staphylococcus aureus ATCC 25923 assessed as bacterial growth inhibition measured after 24 hrs by two fold serial dilution technique; format: functional
Cell membrane [7] = experiment: Induction of inner membrane permeabilization in methicillin-resistant Staphylococcus aureus at 1 time MIC measured for 1 hr by PI dye-based fluorescence assay; details: TDE = time-dependent effect
Staphylococcus aureus [8] = experiment: Antibacterial activity against methicillin-resistant Staphylococcus aureus assessed as respiratory pathway inactivation by measuring decrease in LDH activity measured after 6 hrs by LDH assay; format: functional, organism-based
[9] = target: T1, MecA (Staphylococcus aureus); experiment: Binding affinity to Staphylococcus aureus PBP2a measured after 6 hrs by ELISA in the presence of Norfloxacin; details: filed as positive allosteric modulator
Acinetobacter baumannii = experiment: Antibacterial activity against Acinetobacter baumannii assessed as bacterial growth inhibition measured after 24 hrs by two fold serial dilution technique; format: functional
Staphylococcus aureus [10] = experiment: Induction of ROS generation in methicillin-resistant Staphylococcus aureus after 6 hrs by DCFH-DA staining based fluorescence assay; format: functional, organism-based
DNA [11] = experiment: Binding affinity to DNA (unknown origin) assessed as decrease in maximum absorption peak at 410nm at 3 10^-5 mol/L by UV spectrophotometric analysis; format: functional; details: Homo sapiens
Cell membrane [12] = experiment: Induction of cell membrane disruption in methicillin-resistant Staphylococcus aureus assessed as increase in protein leakage measured after 6 hrs by Bradford assay
Staphylococcus = experiment: Binding affinity to Staphylococcus aureus PBP2a measured after 6 hrs by ELISA; details: filed as positive allosteric modulator
[13] = Hemolytic activity in human RBC assessed as hemolysis incubated for 1 hr; format: toxicity, cell-based, Erythrocyte; details: red blood cells
Klebsiella pneumoniae = experiment: Antibacterial activity against Klebsiella pneumoniae assessed as bacterial growth inhibition measured after 24 hrs by two fold serial dilution technique; format: functional
Escherichia coli [14] = experiment: Antibacterial activity against Escherichia coli assessed as bacterial growth inhibition measured after 24 hrs by two fold serial dilution technique; format: functional
Staphylococcus aureus [15] = experiment: Antibacterial activity against methicillin-resistant Staphylococcus aureus assessed as disrupted cell shapes at 1 time MIC incubated for 8 hrs by SEM analysis; format: functional, organism-based
Cell membrane [16] = experiment: Induction of membrane depolarization in methicillin-resistant Staphylococcus aureus at MIC measured upto 1 hr by DiSC35 dye-based fluorescence assay; details: time hrs <=1, TDE = time-dependent effect
Escherichia coli [17] = experiment: Antibacterial activity against Escherichia coli ATCC 25922 assessed as bacterial growth inhibition measured after 24 hrs by two fold serial dilution technique; format: functional
Homo sapiens = organism: Homo sapiens; experiment: Binding affinity to lipase (unknown origin) assessed as decrease in fluorescence intensity measured after 5 mins by fluorescence spectrofluorometric analysis
Staphylococcus aureus [18] = experiment: Antibacterial activity against methicillin-resistant Staphylococcus aureus assessed as inhibition of bacterial growth at 0.5 time MIC measured after 2 hrs; format: functional, organism-based
Cell membrane [19] = experiment: Induction of inner membrane permeabilization in methicillin-resistant Staphylococcus aureus at 2 times MIC measured for 1 hr by PI dye-based fluorescence assay; details: TDE = time-dependent effect
Pseudomonas aeruginosa [20] = experiment: Antibacterial activity against Pseudomonas aeruginosa assessed as bacterial growth inhibition measured after 24 hrs by two fold serial dilution technique; format: functional
Staphylococcus aureus [21] = experiment: Antibacterial activity against methicillin resistant Staphylococcus aureus treated over 16 serial passages measured after 24 hrs by resistance development assay; format: functional, organism-based
Enterococcus faecium = experiment: Antibacterial activity against Enterococcus faecium assessed as bacterial growth inhibition measured after 24 hrs by two fold serial dilution technique; format: functional
Staphylococcus aureus [22] = experiment: Antibacterial activity against methicillin-resistant Staphylococcus aureus assessed as inhibition of bacterial growth at 2 time MIC measured after 2 hrs; format: functional, organism-based
DNA [23] = experiment: Binding affinity to DNA (unknown origin) assessed as decrease in fluorescence intensity at 5 10^-5 mol/L by acridine orange staining based fluorescence microscopic analysis; format: functional; details: Homo sapiens
Staphylococcus aureus [24] = experiment: Antibacterial activity against methicillin-resistant Staphylococcus aureus assessed as inhibition of bacterial growth at 1 time MIC measured after 2 hrs; format: functional, organism-based
Staphylococcus aureus [25] = experiment: Antibacterial activity against methicillin-resistant Staphylococcus aureus assessed as shriveled cell structures at 1 time MIC incubated for 8 hrs by SEM analysis; format: functional, organism-based
Staphylococcus aureus [26] = experiment: Antibacterial activity against methicillin-resistant Staphylococcus aureus assessed as respiratory pathway inactivation by measuring decrease in LDH activity at MIC incubated for 6 hrs by LDH assay; format: functional; set-up: scale not given: the % may be the effect or the level left
Staphylococcus aureus [27] = experiment: Antibacterial activity against Staphylococcus aureus ATCC 29213 assessed as bacterial growth inhibition measured after 24 hrs by two fold serial dilution technique; format: functional
Staphylococcus aureus [28] = experiment: Antibacterial activity against Staphylococcus aureus assessed as bacterial growth inhibition measured after 24 hrs by two fold serial dilution technique; format: functional

CO/N=C(\C(=O)N1CCN(c2ccc3c4c(cccc24)C(=O)N(CCN(C)C)C3=O)CC1)c1csc(N)n1
Activity (Staphylococcus aureus [1]): Active | MIC (Staphylococcus aureus [2]): 0.5 µg/mL (≈ 0.933 µM) | Activity (DNA [3]): Active | Activity (L929): Non-Toxic | Activity [4]: 1.29 ng/mL | MIC (Pseudomonas aeruginosa [5]): 8 µg/mL (≈ 14.9 µM) | MIC (Staphylococcus aureus [6]): 8 µg/mL (≈ 14.9 µM) | Activity (Cell membrane [7]): Tde | Activity (Staphylococcus aureus [8]): Dose-Dependent Effect | Activity [9]: 4.96 ng/mL | MIC (Acinetobacter baumannii): 16 µg/mL (≈ 29.9 µM) | Activity (Staphylococcus aureus [10]): Dose-Dependent Effect | Activity (DNA [11]): Active | Activity (Cell membrane [12]): Dose-Dependent Effect | Activity (Staphylococcus): 4.58 µg/mL | HC50 at 1 h [13]: 205 µg/mL | MIC (Klebsiella pneumoniae): 4 µg/mL (≈ 7.47 µM) | MIC (Escherichia coli [14]): 2 µg/mL (≈ 3.73 µM) | Activity (Staphylococcus aureus [15]): Active | Activity (Cell membrane [16]): Tde | MIC (Escherichia coli [17]): 16 µg/mL (≈ 29.9 µM) | Activity (Homo sapiens): Active | Activity (Staphylococcus aureus [18]): Active | Activity (Cell membrane [19]): Tde | MIC (Pseudomonas aeruginosa [20]): 16 µg/mL (≈ 29.9 µM) | Activity (Staphylococcus aureus [21]): Active | MIC (Enterococcus faecium): 4 µg/mL (≈ 7.47 µM) | Activity (Staphylococcus aureus [22]): Active | Activity (DNA [23]): Active | Activity (Staphylococcus aureus [24]): Active | Activity (Staphylococcus aureus [25]): Active | Activity (Staphylococcus aureus [26]): 45% | MIC (Staphylococcus aureus [27]): 4 µg/mL (≈ 7.47 µM) | MIC (Staphylococcus aureus [28]): 16 µg/mL (≈ 29.9 µM)
